The record followed here is US10517867B2, “Posaconazole derivative, pharmaceutical composition and use thereof” (priority 2016, dated 2019).

The nature of data set [1]: Determination of solubility in deionized water (HPLC, external standard). The conditions noted are these: 25 °C, water, thermodynamic from solid.
Data set [2] deals with Aspergillus Fumigutus (AF) strains. The experiment in a line: Aspergillus fumigatus keratitis in rats, intravenous administration. The conditions noted are these: 10 mg/kg tail vein once daily for 5 days; mean ± SD of 10 rats.
For data set [3], the system named is Aspergillus fumigatus AF293. The data set is described as follows: Lung Aspergillus fumigatus infection in immunosuppressed mice, intravenous administration. The conditions noted are these: for responders at 20 mg/kg: Aspergillus fumigatus, AF293, in Mus musculus, iv; for lung fungal load: mouse lung tissue, seven days later, 20 mg/kg tail vein once daily for 5 days, mean ± SD.
Experimental: ICR male mice were injected intraperitoneally with cyclophosphamide 150 mg/kg and injected subcutaneously with dexamethasone 150 mg/kg for 10 consecutive days. At the same time, the blood was taken to measure the changes of peripheral white blood cells and neutrophils, and mice with neutrophils consistently lower than 100/μl were selected as successfully immunosuppressed mice. Immediately after the last injection, the mice were anesthetized with ethyl ether, and mice were transferred from the initial state of excitement to inhibition. After their bodies were relaxed, the mice were immediately taken. Left hand was used to grasp the mouse to make it stand upright, the middle finger pressed the mouth so that it could breath only with the nose, and the ring finger gently pressed the abdomen to move the diaphragm muscle upward. 30 μl of conidia suspension (Aspergillus fumigatus AF293, 3×10^6 conidia) was sent to the nostrils of the anesthetized mice by a micropipette to allow spontaneous inhalation. After the mouse returned to normal breathing, it was returned to the cage. […] The death of the mice was observed and the survival time was recorded. Seven days later, the mice were sacrificed and their lung tissues were taken to observe the fungal loads of Aspergillus fumigatus in the lungs of the mice.

Data set [4] deals with Candida albicans ATCC10231. The experiment in a line: Systemic fungal infection in mice, intragastric administration. The class given is in vivo, ICR mice. The conditions noted are these: Candida albicans, ATCC10231, po.
The subject of data set [5] is Candida albicans ATCC10231. The data set is described as follows: Candida albicans vaginitis in mice, intragastric administration. In kind it is in vivo, KM mice. As to conditions: logarithm of the CFU values, mean ± SD of 20 mice, 20 mg/kg intragastric once a day.
Data set [6] is described as follows: In vitro metabolic stability in human intestine S9. The class given is in vitro ADME. The conditions noted are these: human, intestinal S9; 37° C., 10 μM compound, 1 mg/mL S9, NADPH regeneration system; read-out: Human intestine S9 T1/2. Put shortly: (§1)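 Human or rat plasma, preincubated 5 min at 37 °C, or intestinal S9 at 37 °C, spiked from 1 mM stock; triplicates sampled at 1, 2, 5, 15 and 30 min into cold internal standard. HPLC quantitation; half-life by non-compartmental analysis.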

The nature of data set [7]: In vitro metabolic stability in rat intestine S9. The class given is in vitro ADME. The conditions noted are these: rat, intestinal S9, pH 7.4; 37° C., 10 μM compound, 1 mg/mL S9, NADPH regeneration system; read-out: Rat intestine S9 T1/2. In short, it runs like this:
as §1

Data set [8] in a line: In vitro metabolic stability in rat plasma. In kind it is in vitro ADME. As to conditions: rat, plasma, 37° C., 10 μM compound, read-out: Rat plasma T1/2. Put shortly: as §1
The subject of data set [9] is Candida albicans ATCC10231. The data set is described as follows: Systemic fungal infection in mice, intravenous administration. The class given is in vivo, ICR mice. The protocol: ICR mice, weighing 18-22 g, male, provided by Hubei Experimental Animal Center.
Prior to the experiment, a small amount of Candida albicans was picked from an SDA (sacharomyces agar, the same below) medium kept at 4° C. with an inoculation loop and inoculated into 1 ml YPD (Yeast Extract Peptone Dextrose Medium) culture medium, cultured at 30° C. with 200 rpm shaking and activated for 16 hours, so that the fungus was in the late stage of exponential growth. Counted with a hemocytometer and the fungal solution concentration was adjusted to 1×10^3-5×10^3 CFU/ml with RPMI1640 medium (Roswell Park Memorial Institute 1640, the same below). Monoclonal Candida albicans on SDA plate was picked up, inoculated into 1 ml YPD (Yeast Extract Peptone Dextrose Medium, the same below) culture medium, cultured at 35° C., 200 rpm for 16 hours until late exponential growth phase. Candida albicans was inoculated into fresh medium for culturing for 6 hours at 1%, centrifuged at 1000×g for 5 minutes, washed with physiological saline three times until the supernatant was colorless, counted with a hemocytometer, and the cell concentration was adjusted to 5×10^6 cells/ml. A tail vein injection of 0.1 ml/10 g caused a systemic fungal infection in mice. […] A total of 7 days of observations were performed. All dead mice were burned with ethanol.

Data set [10] in a line: In vitro metabolic stability in human plasma. In kind it is in vitro ADME. As to conditions: human, plasma, 37° C., 10 μM compound, read-out: Human plasma T1/2. Put shortly: as §1
A short description of data set [11]: Solid stability test (stability chamber, HPLC total impurity). The class given is physicochemical.
[12] abbreviates: 24 h, read-out: survival rate of mice, day 1, 20 mg/kg tail vein once daily for 5 days, day 1.
Setting [13] is: 48 h, read-out: survival rate of mice, day 2, 20 mg/kg tail vein once daily for 5 days, day 2.
The mark [14] stands for this setting: 72 h, read-out: survival rate of mice, day 3, 20 mg/kg tail vein once daily for 5 days, day 3.
The mark [15] stands for this setting: 96 h, read-out: survival rate of mice, day 4, 20 mg/kg tail vein once daily for 5 days, day 4.
Where [16] appears, read: 120 h, read-out: survival rate of mice, day 5, 20 mg/kg tail vein once daily for 5 days, day 5.
Setting [17] is: 144 h, read-out: survival rate of mice, day 6, 20 mg/kg tail vein once daily for 5 days, day 6.
The mark [18] stands for this setting: 168 h, read-out: survival rate of mice, day 7, 20 mg/kg tail vein once daily for 5 days, day 7.
[19] abbreviates: 24 h, read-out: survival rate of mice, day 1, 20 mg/kg intragastric once daily for 5 days, day 1.
The mark [20] stands for this setting: 48 h, read-out: survival rate of mice, day 2, 20 mg/kg intragastric once daily for 5 days, day 2.
The mark [21] stands for this setting: 72 h, read-out: survival rate of mice, day 3, 20 mg/kg intragastric once daily for 5 days, day 3.
[22] abbreviates: 96 h, read-out: survival rate of mice, day 4, 20 mg/kg intragastric once daily for 5 days, day 4.
[23] abbreviates: 120 h, read-out: survival rate of mice, day 5, 20 mg/kg intragastric once daily for 5 days, day 5.
Where [24] appears, read: 144 h, read-out: survival rate of mice, day 6, 20 mg/kg intragastric once daily for 5 days, day 6.
[25] abbreviates: 168 h, read-out: survival rate of mice, day 7, 20 mg/kg intragastric once daily for 5 days, day 7.
Setting [26] is: 24 h, read-out: survival rate of mice, day 1.
[27] abbreviates: 48 h, read-out: survival rate of mice, day 2.
[28] abbreviates: 72 h, read-out: survival rate of mice, day 3.
Where [29] appears, read: 96 h, read-out: survival rate of mice, day 4.
[30] abbreviates: 120 h, read-out: survival rate of mice, day 5.
The mark [31] stands for this setting: 144 h, read-out: survival rate of mice, day 6.
[32] abbreviates: 168 h, read-out: survival rate of mice, day 7.

Structures are written as SMILES. In brackets after ≈: the same amount, converted by molar mass. Like-named read-outs stand apart in the source and are kept apart here. Some results are limits rather than exact numbers.

Consider `CCC([C@H](C)OC(=O)C(O)C(O)COP(=O)(O)O)n1ncn(-c2ccc(N3CCN(c4ccc(OC[C@@H]5CO[C@@](Cn6cncn6)(c6ccc(F)cc6F)C5)cc4)CC3)cc2)c1=O` (stereo partly shown) [ST0001], for which the solubility at 30 min in data set [1] is 47.7 mg/mL (≈ 53.1 mM). In addition, the “Amount of active fungi in cornea at day 7” value (“Amount of active fungi” below) in data set [2] is 3.73 ± 0.63 10^3 CFU/ml. In addition, the responders at 20 mg/kg is 100% in data set [3] (setting [12]); 100% in [3] (setting [13]); 90% in data set [3] (setting [14]); 90% in data set [3] (setting [15]); 80% in data set [3] (setting [16]); 70% in [3] (setting [17]). Also, in data set [3] (setting [18]), the responders at 20 mg/kg is 70%. Also, the lung fungal load in data set [3] is recorded as 2.28 ± 0.77 10^4 CFU/ml.
`CC[C@@H]([C@H](C)O)n1ncn(-c2ccc(N3CCN(c4ccc(OC[C@@H]5CO[C@@](Cn6c[n+](C(C)OC(=O)N(C)c7ncccc7COC(=O)C[C@H](N)C(=O)O)cn6)(c6ccc(F)cc6F)C5)cc4)CC3)cc2)c1=O` (stereo partly shown) [ST0004]: in data set [1], the solubility at 30 min is greater than 50 mg/mL. Further, the “Amount of active fungi” value in [2] is given as 5.58 ± 1.12 10^3 CFU/ml. The responders at 20 mg/kg in [3] (setting [12]) came to 100%; in data set [3] (setting [13]) it was 90%; in data set [3] (setting [14]) it was 80%; in data set [3] (setting [15]), 80%; in data set [3] (setting [16]), 70%; in data set [3] (setting [17]), 60%. Further, the responders at 20 mg/kg in data set [3] (setting [18]) was 50%. The lung fungal load in data set [3] is 3.51 ± 1.38 10^4 CFU/ml.
In [1], `CC[C@@H]([C@H](C)O)n1ncn(-c2ccc(N3CCN(c4ccc(OC[C@@H]5CO[C@@](Cn6c[n+](C(C)OC(=O)N(C)c7ncccc7COC(=O)CCC(=O)O)cn6)(c6ccc(F)cc6F)C5)cc4)CC3)cc2)c1=O` (stereo partly shown) [ST0005] had a solubility at 30 min greater than 50 mg/mL. For the same molecule, the “Amount of active fungi” value in [2] is 5.90 ± 1.06 10^3 CFU/ml. Further, the responders at 20 mg/kg amounted to 100% in data set [3] (setting [12]); 90% in data set [3] (setting [13]); 80% in data set [3] (setting [14]); 80% in data set [3] (setting [15]); 70% in data set [3] (setting [16]); 60% in data set [3] (setting [17]). Moreover, the responders at 20 mg/kg in [3] (setting [18]) is 50%. The lung fungal load in data set [3] is reported as 3.40 ± 1.26 10^4 CFU/ml.
Turning to `CC[C@@H]([C@H](C)O)n1ncn(-c2ccc(N3CCN(c4ccc(OC[C@@H]5CO[C@@](Cn6c[n+](C(C)OC(=O)N(C)c7ncccc7COC(=O)[C@@H](N)CCN)cn6)(c6ccc(F)cc6F)C5)cc4)CC3)cc2)c1=O` (stereo partly shown) [ST0006], the solubility at 30 min in data set [1] is greater than 50 mg/mL. Also, the responders at 20 mg/kg was 100% in data set [4] (setting [19]); 100% in data set [4] (setting [20]); 90% in [4] (setting [21]); 80% in data set [4] (setting [22]); 70% in data set [4] (setting [23]); 70% in [4] (setting [24]). The responders at 20 mg/kg came to 70% in data set [4] (setting [25]); 100% in data set [3] (setting [12]); 100% in [3] (setting [13]); 100% in data set [3] (setting [14]); 100% in data set [3] (setting [15]); 90% in data set [3] (setting [16]). The results for the responders at 20 mg/kg in data set [3] (setting [17]) and in data set [3] (setting [18]) were 90% and 80%, respectively. In addition, in [2], the “Amount of active fungi” value is 1.92 ± 0.41 10^3 CFU/ml. Moreover, in data set [3], the lung fungal load was 1.73 ± 0.34 10^4 CFU/ml. In addition, the “vaginal fungal load of mice, day 3” value in [5] (day 3) was 4.32 ± 0.29. Besides, the “vaginal fungal load of mice, day 5” value in data set [5] (day 5) came out at 4.18 ± 0.20. Further, the “vaginal fungal load of mice, day 7” value in data set [5] (day 7) turned out to be 3.49 ± 0.54. Also, the “vaginal fungal load of mice, day 11” value in [5] (day 11) is given as 2.84 ± 0.37.
Take `CC[C@@H]([C@H](C)O)n1ncn(-c2ccc(N3CCN(c4ccc(OC[C@@H]5CO[C@@](Cn6c[n+](C(C)OC(=O)N(C)c7ncccc7COC(=O)[C@@H](N)CC(N)=O)cn6)(c6ccc(F)cc6F)C5)cc4)CC3)cc2)c1=O` (stereo partly shown) [ST0023]: the half-life at 10 µM was 15 ± 3.78 min in data set [6], 16.7 ± 2.96 min in data set [7], 0.55 ± 0.78 min in data set [8] and 0.94 ± 0.15 min in data set [10]. In [1], the solubility at 30 min was greater than 50 mg/mL. Further, the responders at 20 mg/kg in data set [4] (setting [19]) came out at 100%; in data set [4] (setting [20]), 100%; in data set [4] (setting [21]) it was 90%; in data set [4] (setting [22]), 90%; in data set [4] (setting [23]), 90%; in [4] (setting [24]) it was 80%. The responders at 20 mg/kg is 80% in data set [4] (setting [25]); 100% in data set [9] (setting [26]); 100% in data set [9] (setting [27]); 100% in data set [9] (setting [28]); 100% in [9] (setting [29]); 100% in data set [9] (setting [30]). Besides, the responders at 20 mg/kg in data set [9] (setting [31]) and in data set [9] (setting [32]) was 90% each time. Also, the “Total impurity increment in 30 days” value in data set [11] is recorded as 0.42%.
As to `CC[C@@H]([C@H](C)O)n1ncn(-c2ccc(N3CCN(c4ccc(OC[C@@H]5CO[C@@](Cn6c[n+](C(C)OC(=O)N(C)c7ncccc7COC(=O)[C@@H](N)CO)cn6)(c6ccc(F)cc6F)C5)cc4)CC3)cc2)c1=O` (stereo partly shown) [ST0025], the half-life at 10 µM stood at 25 ± 4.76 min in [6], 22.5 ± 5.96 min in data set [7], 1.22 ± 0.85 min in [8] and 0.92 ± 0.03 min in data set [10]. For the same molecule, the solubility at 30 min in [1] is greater than 50 mg/mL. Besides, the responders at 20 mg/kg was 100% in [4] (setting [19]); 100% in [4] (setting [20]); 90% in [4] (setting [21]); 90% in data set [4] (setting [22]); 80% in [4] (setting [23]); 80% in data set [4] (setting [24]). Also, the responders at 20 mg/kg was 80% in [4] (setting [25]); 100% in data set [9] (setting [26]); 100% in [9] (setting [27]); 100% in [9] (setting [28]); 100% in data set [9] (setting [29]); 100% in [9] (setting [30]). The responders at 20 mg/kg in data set [9] (setting [31]) and in data set [9] (setting [32]) was 90% each time. Further, the “Total impurity increment in 30 days” value in [11] is reported as 0.55%.
